Measurements published in patent US6521594B1, “Method and composition for treating thrombosis” (La Jolla Cancer Research Foundation, priority 1990, dated 2003).
Read-outs that look alike come from different tables or passages of the source. No end group written: not given here. *: point of attachment. Pmc = Cc1c(C)c(S(=O)(=O)*)c(C)c2c1OC(C)(C)CC2

Experiments:
αvβ5 [1] = assay: αvβ5 ELISA IC50 (μM)
Excerpt: Table printed on a drawing sheet, FIG. 22
Title: Modifications of Ac-CNPRGD(Y-OMe)RC-NH2
(§1) Head of the field: αvβ5 ELISA IC50 (μM)
First copying reader's note: Underlining in the printed sequences marks the cyclic part; the footnote for the raised a at 'Peptide' is not printed on the sheet, and the D in D-Pen is printed as a small capital.
(§2) Where the first naming reader finds the target: head: αvβ5 ELISA IC50 (μM)

platelets [2] = assay: Ex vivo inhibition of platelet aggregation (Table IV); format: in vivo, dog; settings: dose as listed per peptide (bolus ± infusion)
Method: (§3) Platelet aggregation assays were performed following the methods of this Example or those of Example IX.G. Platelet aggregation was assessed using the method of Born, (Nature 194:927-929 (1962)), incorporated herein by reference. Briefly, the change in light transmission was measured through a stirred suspension of platelets in an aggregometer (Model 400 VS, Chrono-Log, Havertown, Pa., USA). Studies employing ADP were performed with platelet-rich plasma (PRP), which was obtained by low-speed centrifugation (200×g for 10 min.) of whole blood freshly drawn into trisodium citrate (at a final concentration of 11 mM). In studies using thrombin, the PRP was gel-filtered on Sepharose 2B in divalent ion-free Tyrode's solution containing 2% BSA. For all studies, the reference standard was platelet-poor plasma, which was obtained by centrifuging PRP at 1000×g for 5 min.
(§4) Platelet counts and ex vivo aggregation studies were performed one hour before and 1, 3, and 5 hours after application of anodal direct current.
Using the method described in Example V to measure ex vivo inhibition of platelet aggregation and the method described in Example VII to measure bleeding, four additional peptides were tested. These peptides included 11J, 11Q, 11K and 11V.

platelets [3] = molecular target: T1, platelets (Homo sapiens, UniProt P05106+P08514); assay: Platelet aggregation assay (Examples XI.G and XII); format: cell-based; settings: comparator analogue 32
T1 sequence (P08514 32-1039): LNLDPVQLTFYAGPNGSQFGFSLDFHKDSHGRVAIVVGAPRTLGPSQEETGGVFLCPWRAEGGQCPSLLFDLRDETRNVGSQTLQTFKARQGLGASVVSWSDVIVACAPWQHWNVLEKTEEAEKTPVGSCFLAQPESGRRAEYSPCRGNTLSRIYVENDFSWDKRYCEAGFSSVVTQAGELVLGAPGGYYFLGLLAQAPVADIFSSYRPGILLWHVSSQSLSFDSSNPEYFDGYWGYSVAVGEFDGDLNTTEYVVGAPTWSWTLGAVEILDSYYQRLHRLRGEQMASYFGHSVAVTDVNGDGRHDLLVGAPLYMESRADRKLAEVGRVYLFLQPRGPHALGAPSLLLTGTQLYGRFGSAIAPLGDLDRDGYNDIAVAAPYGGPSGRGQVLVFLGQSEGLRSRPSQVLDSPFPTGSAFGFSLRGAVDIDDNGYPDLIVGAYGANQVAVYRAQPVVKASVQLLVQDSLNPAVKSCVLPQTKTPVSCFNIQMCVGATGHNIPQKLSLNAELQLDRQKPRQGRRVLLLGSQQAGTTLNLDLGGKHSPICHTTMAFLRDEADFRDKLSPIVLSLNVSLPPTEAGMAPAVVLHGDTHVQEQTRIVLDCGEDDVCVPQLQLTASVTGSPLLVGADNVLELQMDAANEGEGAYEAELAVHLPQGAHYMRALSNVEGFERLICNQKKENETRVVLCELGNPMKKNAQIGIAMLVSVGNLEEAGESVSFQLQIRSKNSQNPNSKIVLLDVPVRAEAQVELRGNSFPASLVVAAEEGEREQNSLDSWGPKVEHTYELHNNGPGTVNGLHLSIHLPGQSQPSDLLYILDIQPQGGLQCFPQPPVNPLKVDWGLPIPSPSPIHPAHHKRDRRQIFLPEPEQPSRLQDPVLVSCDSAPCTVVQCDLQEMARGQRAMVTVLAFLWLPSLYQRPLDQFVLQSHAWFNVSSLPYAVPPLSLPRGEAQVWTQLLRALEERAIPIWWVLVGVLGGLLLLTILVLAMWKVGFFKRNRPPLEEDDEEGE
T1 sequence (P05106 27-788): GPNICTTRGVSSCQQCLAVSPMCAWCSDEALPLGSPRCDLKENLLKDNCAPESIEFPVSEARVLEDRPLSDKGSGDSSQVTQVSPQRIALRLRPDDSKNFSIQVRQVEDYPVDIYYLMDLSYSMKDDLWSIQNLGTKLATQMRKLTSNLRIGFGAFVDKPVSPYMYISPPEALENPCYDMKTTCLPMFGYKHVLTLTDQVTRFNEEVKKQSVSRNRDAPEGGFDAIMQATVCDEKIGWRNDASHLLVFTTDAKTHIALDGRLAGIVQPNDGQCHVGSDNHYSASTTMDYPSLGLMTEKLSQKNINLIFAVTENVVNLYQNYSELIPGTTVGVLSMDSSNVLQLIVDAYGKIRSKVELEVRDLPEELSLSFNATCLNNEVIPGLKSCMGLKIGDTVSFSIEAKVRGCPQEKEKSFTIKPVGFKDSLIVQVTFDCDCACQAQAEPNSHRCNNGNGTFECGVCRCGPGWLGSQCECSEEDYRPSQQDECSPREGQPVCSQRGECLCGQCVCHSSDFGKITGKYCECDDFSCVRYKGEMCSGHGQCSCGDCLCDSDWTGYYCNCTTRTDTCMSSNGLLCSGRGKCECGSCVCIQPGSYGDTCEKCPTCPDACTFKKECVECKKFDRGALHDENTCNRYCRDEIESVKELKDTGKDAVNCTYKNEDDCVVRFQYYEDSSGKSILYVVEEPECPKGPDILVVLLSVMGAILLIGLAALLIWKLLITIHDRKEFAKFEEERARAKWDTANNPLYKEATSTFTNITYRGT
Method: as §3, with “Platelet” for “Platelet aggregation assays were performed following the methods of this Example or those of Example IX.G. Platelet”, “Nature” for “(Nature”, “(1962),” for “(1962)),”
All aggregation studies were performed at 37° C. with a constantly stirred suspension of 3×10^8 platelets/mL. (Platelet count was determined with the aid of a hemacytometer.) Peptides and stimulants were added to these suspensions in 1% dilutions. The PRP and gel-filtered platelets were used within three hours from the time of blood collection.
The peptides described in this Example were synthesized according to the methods of Examples I and XI. Selectivity and potency were measured according to the methods of Examples II through XI. The peptide identification numbers used in this Example are consistent and relevant to this Example only. Some of the peptides are identified by other nomenclature elsewhere in this document.

αvβ5 [4] = assay: αvβ5 ELISA IC50 (μM); remark: listed apart in the source
Excerpt: Table printed on a drawing sheet, FIG. 17
Title: Modifications of G(Pen)[…]
as §1
The patent's description of the figure: FIG. 17 is a Table showing the effect of modifications of Pen residue at position −3 (as defined, infra) on potency and selectivity.
First copying reader's note: Underlining in the printed sequences marks the cyclized part; the footnotes a and b are referenced but not printed on the sheet.
as §2

canine platelets = assay: Canine platelet aggregation in vitro (ADP, arachidonic acid, collagen); format: cell-based, dog; settings: all three responses (ADP, arachidonic acid, collagen); read-out: concentration inhibiting canine platelet aggregation by 50%
Method: as §4
Epinephrine (550 nM) was used to prime platelets before stimulation with arachidonic acid. Peptides were added in 1% dilutions to the PRP solutions.

platelets [5] = molecular target: T1, platelets; assay: Thrombin-stimulated platelet aggregation (gel-filtered platelets); format: cell-based; settings: thrombin 2 U/ml
Method: All aggregation studies were performed at 37° C. with a constantly stirred suspension of 3×10^8 platelets/ml. (Platelet count was determined with the aid of a hemacytometer.) Peptides and stimulants were added to these suspensions in 1% dilutions. The PRP and gel-filtered platelets were used within three hours from the time of blood collection.
Peptide anti-aggregation potencies were determined from dose-responsive curves for the inhibition of the maximum aggregation responses stimulated by physiologic doses of ADP (10 μm) and thrombin (2 U/ml).

coronary thrombosis = assay: Electrically induced canine coronary thrombosis (time to full occlusion); format: in vivo, dog
Method: Male mongrel dogs weighing 14 to 20 kg were selected based on proper aggregation of their platelets in response to arachidonic acid, collagen, and adenosine disphosphate (ADP) and based on similar weights and hemodynamic properties.
Before surgery, the animals were anesthetized with sodium pentobarbital (30 mg/kg, i.v.) and then intubated and ventilated on room air with positive pressure using a respirator (Harvard Apparatus, S. Natick, Mass.) at a volume of 30 ml/kg and a frequency of 12 breaths/min. Surgery, performed under aseptic conditions, was begun with the placement of cannulae into the left carotid artery and jugular vein for monitoring arterial blood pressure (Statham P23 pressure transducer, Gould, Inc., Cardiovascular Products, Oxnard, Calif.) and administering intravenous fluids.
The heart was exposed via a left thoracotomy through the 5th intercostal space. A 2-cm segment of the left circumflex coronary artery (LCCA) was isolated from surrounding tissue by blunt dissection. […] The intra-coronary electrode was constructed by attaching a 25-gauge hypodermic needle tip to a 30-gauge Teflon-insulated silver-coated copper wire. The mechanical occluder was constructed of stainless steel in a C shape with a Teflon screw (2 mm diameter) on top. It was adjusted to control vessel circumference and decrease the reactive hyperemic flow due to a 10-sec (full) occlusion by 50-70% without affecting basal coronary blood flow (FIG. 1). A monopolar epicardial electrode was sutured to the surface of the ventricle in the region of LCCA distribution to monitor ischemic changes in the electrocardiogram (ECG). The left atrium was cannulated with polythylene tubing for administration of the peptide. Continuous recordings of blood pressure, limb lead II ECG, epicardial electrogram, and mean and phasic LCCA blood flow were obtained on a Model 7 polygraph (Grass Instrument Co., Quincy, Mass.).
One hour after the completion of surgery, a 100 micro-amp continuous anodal direct current delivered from a 9 volt nickel-cadmium battery was applied to the intimal surface of the LCCA. The anode of the battery was in series with a 250,000 ohm potentiometer and the intraluminal coronary artery electrode. The electric circuit was completed by placing the cathode in a subcutaneous site. Electrical stimulation was applied for three hours. At the conclusion of each experiment, the heart was fibrillated electrically and quickly removed, and the LCCA was dissected free as far as possible to verify the position of the implanted anodal electrode.
(§5) Animals were randomly assigned to two treatment groups: vehicle control (i.e., normal saline) or RGD peptides at various concentrations. Peptides were administered intra-atrially in both bolus and continuous injections. Each bolus injection consisted of 0.5 to 10 mg/kg and was administered 15 minutes before application of the current. A continuous infusion of the same peptide was then started immediately after completion of this initial injection. Animals received a 25 μg/kg/min to 200 μg/kg/min infusion. The anti-thrombotic effects of the peptides were monitored until 30 minutes after the occurrence of a persistent, occlusive thrombus or five hours after the initiation of electrical stimulation (whichever resulted first). If an occlusive thrombus had not developed within four hours after the initiation of current, the peptide infusion was stopped.
Coronary thrombosis was quantified as the time to full occlusion. The effects of the various peptide treatments on coronary thrombosis is illustrated in FIG. 4.

platelets [6] = assay: Ex vivo platelet aggregation in the canine coronary thrombosis study; set-up: species or system dog; settings: 10 mg/kg injection
Method: For all ex vivo studies (see FIG. 3), control aggregation values were standardized to the percentages of light transmission observed in PRP and PPP samples (0% and 100%, respectively).
as §5, §4
Platelet aggregation was also determined ex vivo at one, three, and five hours after current application. For these studies, arachidonic acid, or collagen was again used to stimulate the platelets.

αvβ5 [7] = assay: αvβ5 ELISA IC50 (μM); remark: listed apart in the source
Excerpt: Table printed on a drawing sheet, FIG. 19
(§6) Title: Modifications of R(Pmc)GHRGD(Y-OMe)RCR
as §1
First copying reader's note: The part of each sequence from (Pmc) through C is underlined on the sheet, and the footnotes a,b cited in the head are not printed on it.
as §2

αvβ5 [8] = assay: αvβ5 ELISA IC50 (μM); remark: listed apart in the source
Excerpt: Table printed on a drawing sheet, FIG. 20
as §6, §1
First copying reader's note: Footnote marks a, b and c are printed but their texts are not on the sheet; the underlined part of each sequence (Pmc to C) marks the cyclic portion, and D in (DH) and (DY) is a small capital for the D-amino acid.
as §2

(Mpr)NPRGD(Y-OMe)RC-NH2 [compound 39] showed an IC50 (αvβ5 [1]) of 3 µM.

Work on (Pmp)NPRGD(Y-OMe)RC-NH2 [compound 38] yielded an IC50 (αvβ5 [1]) of 4.9 µM.

“Ac-(D-Pen)NPRGD(Y-OMe)RC-NH2 [compound 36]” showed an IC50 (αvβ5 [1]) of 6.7 µM.

Work on “Ac-(Pmc)NPRGD(Y-OMe)RC-NH2 [compound 37]” yielded an IC50 (αvβ5 [1]) of 2.34 µM.

With Ac-CNPKGD(Y-OMe)RC-NH2 [11Q] the “ex vivo inhibition platelet aggregation” value (platelets [2]) was >95%.

In the case of Ac-CNPRGD(Y-OMe)(Nle)C-NH2 [11V], the “ex vivo inhibition platelet aggregation” value (platelets [2]) is reported as >98%.

In the case of Ac-CNPRGD(Y-OMe)AC-NH2 [11K], the “platelet aggregation potency compared with analogue 32” value (platelets [3]) is reported as “substantial decreases” and the “ex vivo inhibition platelet aggregation” value (platelets [2]) is reported as >98%.

With Ac-CNPRGD(Y-OMe)EC-NH2 [11J] the “fold decrease in potency versus analogue 32” value (platelets [3]) was 15 fold and the “ex vivo inhibition platelet aggregation” value (platelets [2]) was >98%.

Substance G(D-Pen)GHRGDLRCA [compound 2] has an IC50 (αvβ5 [4]) of 5.27 µM.

Work on G(Pen)GHRGDLRCA [2G] yielded an IC50 (αvβ5 [4]) of 8.26 µM.

In the case of GRGDSP [reference compound], the IC50 (canine platelets) is reported as ~130 µM.

In the case of R(D-Pen)GHRGDLRCR [analogue 4], the IC50 (αvβ5 [4]) is reported as 10 µM.

With R(Pen)GRGDWPCR [4R] the IC50 (platelets [5]) was 0.53 µM, the “coronary thrombosis: time to full occlusion” value (coronary thrombosis; 3 mg/kg) was “ineffective” and the “coronary thrombosis: time to full occlusion” value (coronary thrombosis; 10 mg/kg) was “prevented occlusion throughout the duration of the study”. For the same substance, the “ex vivo platelet aggregation by ADP, AA and collagen” value (platelets [6]) was “unresponsive to all modes of stimulation at all time points”.

R(Pmc)DHRGD(Y-OMe)RCR [compound 18] was tested, and the IC50 (αvβ5 [7]) was 7.2 µM.

In the case of R(Pmc)G(DY)RGD(Y-OMe)RCR [compound 25], the IC50 (αvβ5 [8]) is reported as 10 µM.

Substance R(Pmc)GHRGDLRCR [analogue 5] has an IC50 (αvβ5 [4]) of 1.58 µM.

In the case of R(Pmc)GPRGD(Y-OMe)RCR [compound 26], the IC50 (αvβ5 [8]) is reported as 1.7 µM.

Work on R(Pmc)GYRGD(Y-OMe)RCR [compound 24] yielded an IC50 (αvβ5 [8]) of 8.8 µM.

Substance R(Pmc)IHRGD(Y-OMe)RCR [compound 20] has an IC50 (αvβ5 [7]) of 9.9 µM.

Work on R(Pmc)RHRGD(Y-OMe)RCR [compound 22] yielded an IC50 (αvβ5 [7]) of 6.2 µM.

Substance R(Pmc)SHRGD(Y-OMe)RCR [compound 19] has an IC50 (αvβ5 [7]) of 6.6 µM.

Work on R(Tmc)GHRGDLRCR [analogue 7] yielded an IC50 (αvβ5 [4]) of 0.34 µM.
